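Assay format: 96-well plates, 48-hour exposure. TGI: total growth inhibition.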
Legend:
Assay in all cases: growth of human tumour cells (NCI), 48 h
[1] = system: OVCAR-4 ovarian
[2] = system: SF-295 CNS
[3] = system: LOX IMVI melanoma
[4] = system: MCF7 breast
[5] = system: HCC-2998 colon
[6] = system: SN12C renal
[7] = system: MDA-MB-435
[8] = system: HCT-116 colon
[9] = system: OVCAR-3 ovarian
[10] = system: SF-539 CNS
[11] = system: 786-0 renal
[12] = system: NCI-H23 lung
[13] = system: CCRF-CEM leukemia
[14] = system: OVCAR-8 ovarian
[15] = system: T-47D breast
[16] = system: NCI-H522 lung
[17] = system: HT29 colon
[18] = system: A549 NSCLC
[19] = system: UACC-62 melanoma
[20] = system: MDA-MB-231 breast
[21] = system: NCI-H226 lung
[22] = system: HCT-15 colon
[23] = system: UACC-257 melanoma
[24] = system: TK-10 renal
[25] = system: SK-MEL-28 melanoma
[26] = system: SNB-75 CNS
[27] = system: OVCAR-5 ovarian
[28] = system: COLO 205 colon
[29] = system: MOLT-4 leukemia
[30] = system: SK-MEL-5 melanoma
[31] = system: SR leukemia
[32] = system: NCI-H460 lung
[33] = system: A498 renal
[34] = system: HL-60(TB) leukemia
[35] = system: U251 CNS
[36] = system: RPMI-8226 leukemia
[37] = system: KM12 colon
[38] = system: HOP-92 NSCLC
[39] = system: SNB-19 CNS
[40] = system: M14 melanoma
[41] = system: SK-OV-3 ovarian
[42] = system: HOP-62 NSCLC
[43] = system: HS 578T breast
[44] = system: NCI/ADR-RES ovarian
[45] = system: IGROV1 ovarian
[46] = system: SF-268 CNS
[47] = system: SK-MEL-2 melanoma
[48] = system: MALME-3M melanoma
[49] = system: CAKI-1 renal
[50] = system: RXF 393 renal
[51] = system: EKVX NSCLC
[52] = system: MDA-N
[53] = system: UO-31 renal
[54] = system: K-562 leukemia
[55] = system: DU-145 prostate
[56] = system: PC-3 prostate
[57] = system: SW-620 colon
[58] = system: BT-549 breast
[59] = system: ACHN renal

Clc1ccc(COc2ccccc2/C=N/c2c(-c3ccco3)nc3ccccn23)c(Cl)c1
TGI [1]: > 100 µM
TGI [2]: > 100 µM
TGI [3]: 35.5 µM
TGI [4]: 62 µM
TGI [5]: > 100 µM
TGI [6]: 66.6 µM
TGI [7]: 49.1 µM
TGI [8]: 36.7 µM
TGI [9]: > 100 µM
TGI [10]: 47.3 µM
TGI [11]: 75.9 µM
TGI [12]: > 100 µM
TGI [13]: 63.7 µM
TGI [14]: > 100 µM
TGI [15]: > 100 µM
TGI [16]: > 100 µM
TGI [17]: > 100 µM
TGI [18]: > 100 µM
TGI [19]: > 100 µM
TGI [20]: 52.6 µM
TGI [21]: > 100 µM
TGI [22]: 88.3 µM
TGI [23]: > 100 µM
TGI [24]: 88.6 µM
TGI [25]: > 100 µM
TGI [26]: 69.7 µM
TGI [27]: > 100 µM
TGI [28]: > 100 µM
TGI [29]: > 100 µM
TGI [30]: 32 µM
TGI [31]: 49.2 µM
TGI [32]: > 100 µM
TGI [33]: > 100 µM
TGI [34]: 71.2 µM
TGI [35]: > 100 µM
TGI [36]: 86.2 µM
TGI [37]: > 100 µM
TGI [38]: 57.4 µM
TGI [39]: > 100 µM
TGI [40]: 74.1 µM
TGI [41]: > 100 µM
TGI [42]: > 100 µM
TGI [43]: > 100 µM
TGI [44]: 96.1 µM
TGI [45]: > 100 µM
TGI [46]: > 100 µM
TGI [47]: 42.8 µM
TGI [48]: > 100 µM
TGI [49]: > 100 µM
TGI [50]: 56.3 µM
TGI [51]: > 100 µM
TGI [52]: 70.2 µM
TGI [53]: > 100 µM
TGI [54]: > 100 µM
TGI [55]: 76 µM
TGI [56]: > 100 µM
TGI [57]: > 100 µM
TGI [58]: 89.6 µM
TGI [59]: > 100 µM

CCCCCCCCCCc1c2nc(c(CCCCCCCCCC)c3ccc([nH]3)c(CCCCCCCCCC)c3ccc([nH]3)c(CCCCCCCCCC)c3nc1C=C3)C=C2
TGI [1]: > 100 µM
TGI [2]: > 100 µM
TGI [3]: > 100 µM
TGI [4]: > 100 µM
TGI [5]: > 100 µM
TGI [6]: > 100 µM
TGI [7]: > 100 µM
TGI [8]: > 100 µM
TGI [9]: > 100 µM
TGI [10]: > 100 µM
TGI [11]: > 100 µM
TGI [12]: > 100 µM
TGI [13]: > 100 µM
TGI [14]: > 100 µM
TGI [15]: > 100 µM
TGI [16]: > 100 µM
TGI [17]: > 100 µM
TGI [18]: > 100 µM
TGI [19]: > 100 µM
TGI [20]: > 100 µM
TGI [21]: > 100 µM
TGI [22]: > 100 µM
TGI [23]: > 100 µM
TGI [24]: > 100 µM
TGI [25]: > 100 µM
TGI [26]: > 100 µM
TGI [27]: > 100 µM
TGI [28]: > 100 µM
TGI [29]: > 100 µM
TGI [30]: > 100 µM
TGI [31]: > 100 µM
TGI [32]: > 100 µM
TGI [33]: > 100 µM
TGI [34]: > 100 µM
TGI [35]: > 100 µM
TGI [36]: > 100 µM
TGI [37]: > 100 µM
TGI [38]: > 100 µM
TGI [39]: > 100 µM
TGI [40]: > 100 µM
TGI [41]: > 100 µM
TGI [42]: > 100 µM
TGI [43]: > 100 µM
TGI [44]: > 100 µM
TGI [45]: > 100 µM
TGI [46]: > 100 µM
TGI [47]: > 100 µM
TGI [48]: > 100 µM
TGI [49]: > 100 µM
TGI [50]: > 100 µM
TGI [51]: > 100 µM
TGI [52]: > 100 µM
TGI [53]: > 100 µM
TGI [54]: > 100 µM
TGI [55]: > 100 µM
TGI [56]: > 100 µM
TGI [57]: > 100 µM
TGI [58]: > 100 µM
TGI [59]: > 100 µM

From PubChem BioAssay (NCI)
